The source of these data is patent US20250388575A1, “HETEROBIFUNCTIONAL COMPOUNDS AND METHODS OF TREATING DISEASE” (Halda Therapeutics OpCo, Inc., priority 2022, published 2025).

The test addresses androgen receptor (Homo sapiens, UniProt P10275). Nature of the test: Assay for binding affinity to androgen receptor ([3H]methyltrienolone radioligand, cell cytosol). Conditions: binding to the androgen receptor, 1 nM [3H]methyltrienolone, 24 hr at 4° C. On the procedure:
Fractions of cell cytosol (106 cell/point) were incubated for 24 hr at 4° C. with 1 nM [^3H]methyltrienolone in the absence or presence of the test compound in a buffer containing 25 mM Hepes-Tris (pH 7.4), 1 mM EDTA, 10 mM Na2MoO4, 2 mM DTT, 5 µM triamcinolone acetonide, and 10% glycerol. Nonspecific binding was determined in the presence of 1 μM testosterone. Following incubation, the samples were filtered rapidly under vacuum through glass fiber filters (GF/B, Packard) presoaked with 0.3% PEI and rinsed several times with ice-cold 50 mM Tris-HCl using a 96-sample cell harvester (Unifilter, Packard). The filters were dried then counted for radioactivity in a scintillation counter (Topcount, Packard) using a scintillation cocktail (Microscint 0, Packard). The results are expressed as a percent inhibition of the control radioligand specific binding. The standard reference compound is testosterone, which is tested in each experiment at several concentrations to obtain a competition curve from which its IC50 is calculated.

androgen receptor, sequence (P10275 whole entry, looked up): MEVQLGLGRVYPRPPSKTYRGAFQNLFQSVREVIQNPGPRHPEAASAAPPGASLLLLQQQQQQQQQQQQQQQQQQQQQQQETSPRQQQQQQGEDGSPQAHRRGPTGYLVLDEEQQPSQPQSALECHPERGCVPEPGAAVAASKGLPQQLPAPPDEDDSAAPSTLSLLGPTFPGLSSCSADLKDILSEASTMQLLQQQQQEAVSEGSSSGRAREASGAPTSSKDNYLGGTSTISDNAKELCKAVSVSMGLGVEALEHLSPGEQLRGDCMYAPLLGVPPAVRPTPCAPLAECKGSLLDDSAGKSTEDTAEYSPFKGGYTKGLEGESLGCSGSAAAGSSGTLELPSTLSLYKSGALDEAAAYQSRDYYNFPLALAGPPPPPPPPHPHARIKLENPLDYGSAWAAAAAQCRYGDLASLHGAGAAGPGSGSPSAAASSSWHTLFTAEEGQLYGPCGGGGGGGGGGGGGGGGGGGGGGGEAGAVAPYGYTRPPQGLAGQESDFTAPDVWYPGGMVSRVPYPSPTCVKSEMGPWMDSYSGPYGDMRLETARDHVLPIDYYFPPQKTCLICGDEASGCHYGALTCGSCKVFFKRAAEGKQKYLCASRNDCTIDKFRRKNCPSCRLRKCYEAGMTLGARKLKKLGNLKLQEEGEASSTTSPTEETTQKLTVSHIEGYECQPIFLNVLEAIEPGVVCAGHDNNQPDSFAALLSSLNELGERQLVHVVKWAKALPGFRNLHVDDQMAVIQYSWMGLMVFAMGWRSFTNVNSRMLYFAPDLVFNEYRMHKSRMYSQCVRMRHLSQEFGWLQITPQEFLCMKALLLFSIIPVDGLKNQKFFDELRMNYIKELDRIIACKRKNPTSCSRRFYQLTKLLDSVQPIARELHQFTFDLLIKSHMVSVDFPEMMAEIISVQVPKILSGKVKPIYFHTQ

`Cn1cc(-c2cc(C(C)(C)O)ccc2Oc2ccc(CCC3CCN(c4ccc(C(=O)N[C@H]5CC[C@H](Oc6ccc(C#N)c(Cl)c6)CC5)nn4)CC3)cc2)c2cc[nH]c2c1=O` [I-102] displayed a Kd of 50 to 500 nM.

As a reminder, the Kd is the constant that tells how readily two partners part at equilibrium.
